Results published in patent US20110152314A1, “USE OF TENATOPRAZOLE FOR THE TREATMENT OF GASTROESOPHAGEAL REFLUX DISEASE” (SIDEM PHARMA, priority 2002, published 2011).

Experiments:
[1] = test system: patients with atypical symptoms of gastroesophageal reflux; assay: Clinical treatment of patients with atypical symptoms of gastroesophageal reflux; type: in vivo, human; design: Safety: key: +: moderate; ++: ranging from moderate to highly favorable; +++: highly favorable; details: oral; on Evolution of symptom: key: +: moderate; ++: ranging from moderate to highly favorable; +++: highly favorable
From the text: Some clinical examples are given below, which show the effects of treatment on patients suffering from gastroesophageal reflux or dyspepsia, treated by the oral administration of tenatoprazole.

[2] = test system: patients suffering from erosive and/or ulcerative type reflux esophagitis; assay: Open-labeled studies in reflux esophagitis: improvement rating of subjective and objective symptoms; type: in vivo, human; details: 10 mg tablet orally once a day
Experimental: Two open-labeled studies have been conducted in order to evaluate the efficacy and safety of tenatoprazole for gastroesophageal reflux disease. 22 patients in the first study and 24 patients in the second study, of more than 20 years of age, suffering from erosive and/or ulcerative type reflux esophagitis (diagnosed by endoscopy), received tablets containing enteric-coated granules with 10 mg of tenatoprazole.
[…] […], or at the withdrawal from the study, the disease stages were evaluated according to the Savary and Miller classification and the treatment was stopped when healing was confirmed. The condition was evaluated as healed when disappearance of erosion was confirmed.

[3] = patient 26, asthma, link with GERD ++, 12 weeks
[4] = patient 27, dental caries, link with GERD +, 12 weeks
[5] = patient 29, noct. cough, link with GERD +++, 7 weeks
[6] = patient 31, pharyngitis, link with GERD +, 8 weeks
[7] = patient 33, asthma, link with GERD ++, 12 weeks
[8] = patient 34, dysphonia, link with GERD ++, 4 weeks
[9] = patient 34, pharyngitis, link with GERD ++, 8 weeks
[10] = patient 36, dysphonia, link with GERD ++, 5 weeks
[11] = patient 36, noct. cough, link with GERD ++, 8 weeks
[12] = patient 44, pharyngitis, link with GERD +, 4 weeks
[13] = patient 45, pseudo-angina, link with GERD ++, 8 weeks
[14] = patient 49, pseudo-angina, link with GERD ++, 12 weeks

COc1ccc2[nH]c([S+]([O-])Cc3ncc(C)c(OC)c3C)nc2n1 (stereo not drawn) [tenatoprazole, 5-methoxy-2-[[(4-methoxy-3,5-dimethyl-2-pyridyl)methyl]sulfinyl]imidazo[4,5-b]pyridine]
9: Improvement rating of symptoms, patients rated A markedly improved ([2]; 1st study, 8 weeks)
+++: Evolution of symptom [1, 3] | Safety [1, 3] | Evolution of symptom [1, 5] | Safety [1, 5] | Safety [1, 6] | Safety [1, 7] | Safety [1, 8] | Safety [1, 9] | Evolution of symptom [1, 10] | Safety [1, 10] | Evolution of symptom [1, 11] | Safety [1, 12] | Evolution of symptom [1, 13] | Safety [1, 13] | Evolution of symptom [1, 14] | Safety [1, 14]
16: Improvement rating of symptoms, patients rated A markedly improved ([2]; 1st study, 1 week)
21: Improvement rating of symptoms, patients rated A markedly improved ([2]; 1st study, 2 weeks) | Improvement rating of symptoms, patients rated A markedly improved ([2]; 1st study, final) | Improvement rating of symptoms, patients rated A markedly improved ([2]; 2nd study, 2 weeks)
20: Improvement rating of symptoms, patients rated A markedly improved ([2]; 2nd study, 4 weeks)
0: Evolution of symptom [1, 4] | Improvement rating of symptoms, patients rated C slightly improved ([2]; 1st study, 1 week) | Improvement rating of symptoms, patients rated E aggravated ([2]; 1st study, 1 week) | Improvement rating of symptoms, patients rated C slightly improved ([2]; 1st study, 2 weeks) | Improvement rating of symptoms, patients rated E aggravated ([2]; 1st study, 2 weeks) | Improvement rating of symptoms, patients rated B moderately improved ([2]; 1st study, 4 weeks) | Improvement rating of symptoms, patients rated D not changed ([2]; 1st study, 4 weeks) | Improvement rating of symptoms, patients rated E aggravated ([2]; 1st study, 4 weeks) | Improvement rating of symptoms, patients rated B moderately improved ([2]; 1st study, 6 weeks) | Improvement rating of symptoms, patients rated D not changed ([2]; 1st study, 6 weeks) | Improvement rating of symptoms, patients rated E aggravated ([2]; 1st study, 6 weeks) | Improvement rating of symptoms, patients rated B moderately improved ([2]; 1st study, 8 weeks) | Improvement rating of symptoms, patients rated D not changed ([2]; 1st study, 8 weeks) | Improvement rating of symptoms, patients rated E aggravated ([2]; 1st study, 8 weeks) | Improvement rating of symptoms, patients rated B moderately improved ([2]; 1st study, 10 weeks) | Improvement rating of symptoms, patients rated C slightly improved ([2]; 1st study, 10 weeks) | Improvement rating of symptoms, patients rated D not changed ([2]; 1st study, 10 weeks) | Improvement rating of symptoms, patients rated E aggravated ([2]; 1st study, 10 weeks) | Improvement rating of symptoms, patients rated B moderately improved ([2]; 1st study, final) | Improvement rating of symptoms, patients rated D not changed ([2]; 1st study, final) | Improvement rating of symptoms, patients rated E aggravated ([2]; 1st study, final) | Improvement rating of symptoms, patients rated E aggravated ([2]; 2nd study, 1 week) | Improvement rating of symptoms, patients rated D not changed ([2]; 2nd study, 2 weeks) | Improvement rating of symptoms, patients rated E aggravated ([2]; 2nd study, 2 weeks) | Improvement rating of symptoms, patients rated D not changed ([2]; 2nd study, 4 weeks) | Improvement rating of symptoms, patients rated E aggravated ([2]; 2nd study, 4 weeks) | Improvement rating of symptoms, patients rated B moderately improved ([2]; 2nd study, 6 weeks) | Improvement rating of symptoms, patients rated D not changed ([2]; 2nd study, 6 weeks) | Improvement rating of symptoms, patients rated E aggravated ([2]; 2nd study, 6 weeks) | Improvement rating of symptoms, patients rated C slightly improved ([2]; 2nd study, 8 weeks) | Improvement rating of symptoms, patients rated D not changed ([2]; 2nd study, 8 weeks) | Improvement rating of symptoms, patients rated E aggravated ([2]; 2nd study, 8 weeks) | Improvement rating of symptoms, patients rated A markedly improved ([2]; 2nd study, 10 weeks) | Improvement rating of symptoms, patients rated C slightly improved ([2]; 2nd study, 10 weeks) | Improvement rating of symptoms, patients rated D not changed ([2]; 2nd study, 10 weeks) | Improvement rating of symptoms, patients rated E aggravated ([2]; 2nd study, 10 weeks) | Improvement rating of symptoms, patients rated A markedly improved ([2]; 2nd study, 12 weeks) | Improvement rating of symptoms, patients rated C slightly improved ([2]; 2nd study, 12 weeks) | Improvement rating of symptoms, patients rated D not changed ([2]; 2nd study, 12 weeks) | Improvement rating of symptoms, patients rated E aggravated ([2]; 2nd study, 12 weeks) | Improvement rating of symptoms, patients rated C slightly improved ([2]; 2nd study, final) | Improvement rating of symptoms, patients rated D not changed ([2]; 2nd study, final) | Improvement rating of symptoms, patients rated E aggravated ([2]; 2nd study, final)
++: Safety [1, 4] | Evolution of symptom [1, 7] | Evolution of symptom [1, 8] | Evolution of symptom [1, 9] | Safety [1, 11] | Evolution of symptom [1, 12]
2: Improvement rating of symptoms, patients rated A markedly improved ([2]; 1st study, 10 weeks) | Improvement rating of symptoms, patients rated B moderately improved ([2]; 2nd study, 1 week) | Improvement rating of symptoms, patients rated B moderately improved ([2]; 2nd study, final)
1: Improvement rating of symptoms, patients rated B moderately improved ([2]; 1st study, 2 weeks) | Improvement rating of symptoms, patients rated D not changed ([2]; 1st study, 2 weeks) | Improvement rating of symptoms, patients rated C slightly improved ([2]; 1st study, 4 weeks) | Improvement rating of symptoms, patients rated C slightly improved ([2]; 1st study, 6 weeks) | Improvement rating of symptoms, patients rated C slightly improved ([2]; 1st study, 8 weeks) | Improvement rating of symptoms, patients rated C slightly improved ([2]; 1st study, final) | Improvement rating of symptoms, patients rated C slightly improved ([2]; 2nd study, 1 week) | Improvement rating of symptoms, patients rated D not changed ([2]; 2nd study, 1 week) | Improvement rating of symptoms, patients rated B moderately improved ([2]; 2nd study, 2 weeks) | Improvement rating of symptoms, patients rated C slightly improved ([2]; 2nd study, 2 weeks) | Improvement rating of symptoms, patients rated B moderately improved ([2]; 2nd study, 4 weeks) | Improvement rating of symptoms, patients rated C slightly improved ([2]; 2nd study, 4 weeks) | Improvement rating of symptoms, patients rated C slightly improved ([2]; 2nd study, 6 weeks) | Improvement rating of symptoms, patients rated B moderately improved ([2]; 2nd study, 8 weeks) | Improvement rating of symptoms, patients rated B moderately improved ([2]; 2nd study, 10 weeks) | Improvement rating of symptoms, patients rated B moderately improved ([2]; 2nd study, 12 weeks)
23: Improvement rating of symptoms, patients rated A markedly improved ([2]; 1st study, 4 weeks)
10: Improvement rating of symptoms, patients rated A markedly improved ([2]; 1st study, 6 weeks) | Improvement rating of symptoms, patients rated A markedly improved ([2]; 2nd study, 6 weeks) | Improvement rating of symptoms, patients rated A markedly improved ([2]; 2nd study, 8 weeks)
3: Improvement rating of symptoms, patients rated D not changed ([2]; 1st study, 1 week)
6: Improvement rating of symptoms, patients rated B moderately improved ([2]; 1st study, 1 week)
19: Improvement rating of symptoms, patients rated A markedly improved ([2]; 2nd study, 1 week) | Improvement rating of symptoms, patients rated A markedly improved ([2]; 2nd study, final)
+: Evolution of symptom [1, 6]
